Laboratory results as given in ChEMBL document CHEMBL1201862, “PubChem BioAssay data set” (2004).
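Dose response: 5 concentrations. Exposure: 48 h. Format: 96-well plates. Endpoint: linear interpolation; highest concentration if not reached. GI50 = concentration required for 50% inhibition of growth.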 Activity calls are given as the source filed them. Cut-off read from the data, not from the text of the source: active = GI50 up to about 1.1 µM and inactive = higher.

What was measured:
Test in all cases: growth of human tumour cells (NCI), 48 h
[1] = tested on: 786-0
[2] = tested on: A498
[3] = tested on: A549
[4] = tested on: ACHN
[5] = tested on: BT-549
[6] = tested on: CAKI-1
[7] = tested on: COLO 205
[8] = tested on: DU-145
[9] = tested on: EKVX
[10] = tested on: HCC 2998
[11] = tested on: HCT-116
[12] = tested on: HCT-15
[13] = tested on: HL-60
[14] = tested on: HOP-62
[15] = tested on: HOP-92
[16] = tested on: HT-29
[17] = tested on: Hs-578T
[18] = tested on: IGROV-1
[19] = tested on: K562
[20] = tested on: KM12
[21] = tested on: LOX IMVI
[22] = tested on: M14
[23] = tested on: MCF7
[24] = tested on: MDA-MB-231
[25] = tested on: MDA-MB-435
[26] = tested on: MDA-N
[27] = tested on: MOLT-4
[28] = tested on: Malme-3M
[29] = tested on: NCI-H226
[30] = tested on: NCI-H23
[31] = tested on: NCI-H460
[32] = tested on: NCI-H522
[33] = tested on: NCI/ADR-RES
[34] = tested on: OVCAR-3
[35] = tested on: OVCAR-4
[36] = tested on: OVCAR-5
[37] = tested on: OVCAR-8
[38] = tested on: PC-3
[39] = tested on: RPMI-8226
[40] = tested on: RXF 393
[41] = tested on: SF-268
[42] = tested on: SF-295
[43] = tested on: SF-539
[44] = tested on: SK-MEL-28
[45] = tested on: SK-MEL-2
[46] = tested on: SK-MEL-5
[47] = tested on: SK-OV-3
[48] = tested on: SN12C
[49] = tested on: SNB-19
[50] = tested on: SNB-75
[51] = tested on: SR
[52] = tested on: SW-620
[53] = tested on: T47D
[54] = tested on: TK-10
[55] = tested on: U-251
[56] = tested on: UACC-257
[57] = tested on: UACC-62
[58] = tested on: UO-31
[59] = tested on: CCRF-CEM

O=c1c2ccccc2[se]n1-c1cccnc1
GI50 [1]: 31.4 µM (inactive) | GI50 [2]: 24.7 µM (inactive) | GI50 [3]: 40.6 µM (inactive) | GI50 [4]: 28.1 µM (inactive) | GI50 [5]: 31.3 µM (inactive) | GI50 [6]: 42.3 µM (inactive) | GI50 [7]: 20 µM (inactive) | GI50 [8]: 18.2 µM (inactive) | GI50 [9]: 33.4 µM (inactive) | GI50 [10]: 11.4 µM (inactive) | GI50 [11]: 30.5 µM (inactive) | GI50 [12]: 23.6 µM | GI50 [13]: 30.1 µM (inactive) | GI50 [14]: 24.9 µM (inactive) | GI50 [15]: 15.9 µM (inactive) | GI50 [16]: 43.8 µM (inactive) | GI50 [17]: 20.1 µM (inactive) | GI50 [18]: 19.8 µM (inactive) | GI50 [19]: 40.6 µM (inactive) | GI50 [20]: 79.3 µM (inactive) | GI50 [21]: 24.5 µM (inactive) | GI50 [22]: 30.7 µM (inactive) | GI50 [23]: 29.4 µM (inactive) | GI50 [24]: 25.1 µM (inactive) | GI50 [25]: 22.2 µM (inactive) | GI50 [26]: 22.6 µM (inactive) | GI50 [27]: 31.3 µM (inactive) | GI50 [28]: 21.7 µM (inactive) | GI50 [29]: 28.4 µM (inactive) | GI50 [30]: 21.4 µM (inactive) | GI50 [31]: 53.6 µM (inactive) | GI50 [32]: 20.7 µM (inactive) | GI50 [33]: 33.5 µM (inactive) | GI50 [34]: 29.1 µM (inactive) | GI50 [35]: 36.2 µM (inactive) | GI50 [36]: 46.2 µM (inactive) | GI50 [37]: 24.9 µM (inactive) | GI50 [38]: 22.3 µM (inactive) | GI50 [39]: 34.5 µM (inactive) | GI50 [40]: 29.2 µM (inactive) | GI50 [41]: 27 µM (inactive) | GI50 [42]: 31.9 µM (inactive) | GI50 [43]: 21.9 µM (inactive) | GI50 [44]: 24.7 µM (inactive) | GI50 [45]: 19.3 µM (inactive) | GI50 [46]: 12.9 µM (inactive) | GI50 [47]: > 100 µM (inactive) | GI50 [48]: 29.6 µM (inactive) | GI50 [49]: 49.4 µM (inactive) | GI50 [50]: 18.1 µM (inactive) | GI50 [51]: 34.7 µM (inactive) | GI50 [52]: 29 µM (inactive) | GI50 [53]: 21.7 µM (inactive) | GI50 [54]: 24.2 µM (inactive) | GI50 [55]: 26.7 µM (inactive) | GI50 [56]: 23.4 µM (inactive) | GI50 [57]: 13 µM (inactive) | GI50 [58]: 35.2 µM (inactive)

COc1ccc(C2=Nn3c(nc4sc(-c5ccccc5)cc4c3=O)SC2)cc1
GI50 [1]: 36.9 µM (inactive) | GI50 [2]: > 100 µM (inactive) | GI50 [3]: > 100 µM (inactive) | GI50 [4]: 7.35 µM (inactive) | GI50 [5]: > 100 µM (inactive) | GI50 [6]: > 100 µM (inactive) | GI50 [59]: > 100 µM (inactive) | GI50 [7]: > 100 µM (inactive) | GI50 [8]: > 100 µM (inactive) | GI50 [9]: > 100 µM (inactive) | GI50 [10]: > 100 µM (inactive) | GI50 [11]: 92.3 µM (inactive) | GI50 [12]: > 100 µM | GI50 [13]: > 100 µM (inactive) | GI50 [14]: 54.8 µM (inactive) | GI50 [15]: > 100 µM (inactive) | GI50 [16]: > 100 µM (inactive) | GI50 [17]: 34.4 µM (inactive) | GI50 [18]: > 100 µM (inactive) | GI50 [19]: > 10 µM (inactive) | GI50 [20]: 81.1 µM (inactive) | GI50 [21]: > 100 µM (inactive) | GI50 [23]: > 100 µM (inactive) | GI50 [24]: > 100 µM (inactive) | GI50 [25]: > 100 µM (inactive) | GI50 [26]: 81.8 µM (inactive) | GI50 [27]: > 100 µM (inactive) | GI50 [28]: > 100 µM (inactive) | GI50 [29]: > 100 µM (inactive) | GI50 [30]: > 100 µM (inactive) | GI50 [31]: 48.4 µM (inactive) | GI50 [32]: > 100 µM (inactive) | GI50 [33]: > 100 µM (inactive) | GI50 [34]: > 100 µM (inactive) | GI50 [36]: > 100 µM (inactive) | GI50 [37]: > 100 µM (inactive) | GI50 [38]: > 100 µM (inactive) | GI50 [39]: > 100 µM (inactive) | GI50 [40]: > 10 µM (inactive) | GI50 [41]: > 100 µM (inactive) | GI50 [42]: > 100 µM (inactive) | GI50 [43]: > 100 µM (inactive) | GI50 [44]: > 100 µM (inactive) | GI50 [46]: > 100 µM (inactive) | GI50 [47]: > 100 µM (inactive) | GI50 [48]: > 100 µM (inactive) | GI50 [51]: > 100 µM (inactive) | GI50 [52]: 37.3 µM (inactive) | GI50 [53]: > 100 µM (inactive) | GI50 [54]: > 100 µM (inactive) | GI50 [55]: > 100 µM (inactive) | GI50 [56]: > 100 µM (inactive) | GI50 [57]: > 100 µM (inactive) | GI50 [58]: > 100 µM (inactive)
